Columns and labels:
[1] = Particle size and PDI by dynamic light scattering; format: physicochemical
Protocol: The 7.5 μL nucleic acid lipid nanoparticle solution (containing approximately 0.04 mg/mL mRNA) was taken and added with 200 μL ultrapure water, mixed by gentle blowing using a pipette tip, and the particle size of the nanopreparation was detected by dynamic lightscattering (DLS) using a Malvern Dynamic Light Scattering Instrument (Malvern Instruments Ltd., ZEN3700, UK). 27.5 μL nucleic acid lipid nanoparticle solution (containing about 0.04 mg/mL mRNA) was taken and added with 200 μL ultrapure water. A pipette tip was used to gently blow the sample and mix well. The particle size of the nanopreparation was detected by Malvern Dynamic Light Scattering Instrument (Malvern Instruments Ltd., ZEN3700, UK). After the detection, the sample was recovered to an EP tube, and 600 μL of ultrapure water was added, gently blown with a pipette tip, and the potential of the nanopreparation was measured by a Malvern particle size meter.

[2] = tested on: mice; assay: In vivo delivery of FLuc-mRNA lipid nanoparticle preparations in mice (IVIS imaging); set-up: In vivo IVIS / In vivo IVIS (liver) / In vivo IVIS (spleen): unit not given here; conditions: for in vivo delivery efficiency as compared to the benchmark compound SM102: certain formulations
Protocol: 7. In Vivo Delivery of the Nucleic Acid Lipid Nanoparticle Preparations in Mice After the preparation was completed, the preparation was injected intramuscularly (mice rectus femoris muscle of the thigh) or intravenously (mice tail vein), with approximately 75 μL per mouse, for a total of 3 mice. After a certain time of injection, in vivo imaging (PerkinElmer, IVIS Lumina III) was performed. 10-15 minutes before imaging, 200 μL of 15 mg/mL D-Luciferin working solution was injected intraperitoneally, and the imaging analysis was performed using an in vivo imager.

[3] = tested on: Delta-S protein; assay: In vivo immunization with Delta Spike mRNA LNP, serum ELISA for specific antibody; set-up: species or system mice; conditions: serum after second administration
Protocol: Lipid nanoparticles encapsulating the nucleic acid drugs were prepared according to step 2. The mRNA was replaced with Delta Spike full length mRNA (Shanghai Zhaowei Science and Technology Development Co., Ltd.) and then administered to the mice at a dose of 5 μg per mouse, and on the 14th day after the first immunization, the whole blood of the mice was collected by canthus sampling, and the drug administration was repeated for the second immunization. On the 14th day after the second immunization, the whole blood was collected from mice by canthus sampling. The whole blood was centrifuged at 5000 rcf for 5 mn, and the supernatant was centrifuged at 10000 rcf for 5 min to obtain the serum, which was aliquated into serial tubes and stored in the refrigerator at −20° C.
• 9.2.1 Coating: Add 100 μL of 0.2 μg/100 μL Delta-S protein (Novoprotein Scientific Inc.) dilution solution to each well, and leave it in the refrigerator at 4° C. overnight. • 9.2.2 Washing: Add 200 μL of PBST (PBS buffer solution containing 0.05% Tween-20 at pH 7.4) to each well and wash three times. • 9.2.3 Blocking: Add 200 μL of 5% (w/v) BSA-PBS solution (BSA bovine serum albumin, Bioss Biotechnology Co., Ltd.) to each well, and shake for 2 h at 50 rcf at room temperature using a shaker. • 9.2.4 Washing: Add 200 μL of PBST to each well to wash once. • 9.2.5 Adding samples: Add 100 μL of serum diluted 200 times with PBS (0.5 μL of serum) to each well (for the ELISA titer assay, serum diluted 200 times, 800 times, 3200 times, 12800 times, 51200 times, 204800 times), and shake at room temperature for 2 h at 50 rcf using a shaker. • 9.2.6 Washing: Add 200 μL of PBST into each well for three times. • 9.2.7 Adding detection antibody: Add 100 μL of HRP-labeled goat anti-mouse IgG detection antibody (0.1 μL of antibody master batch) (Sangon Biotech (Shanghai) Co., Ltd.) diluted 1000-fold into each well, and shake at 50 rcf for 1 h at room temperature using a shaker. • 9.2.8 Washing: Add 200 μL of PBST to each well and wash three times. • 9.2.9 Adding TMB (Beijing Solarbio Science & Technology Co., Ltd.): Add 50 μL of TMB mixture with the volume ratio of liquid A:liquid B of 1:1 to each well, and react for 5 mn (ELISA of blood sample I), 7 min 58 sec (ELISA of blood sample II), and react for about 5 min (ELISA titer of blood sample II). • 9.2.10 Adding phosphate (Aladdin Reagent (Shanghai) Co., Ltd.): add 50 μL of 1 mol/L phosphate per well to terminate the reaction. • 9.2.11 Detection: Use multi-function plate reader for detection. 9.3. Neutralization Antibody Levels Detected by Pseudovirus Neutralization Assay • 9.3.1 Cell seeding: 293T-ACE2 cells (Fubio (Suzhou) Biomedical Technology Co., Ltd.) were inoculated with 1×10^5 cells in each well of a 48-well plate at a concentration of 1×10^5 cells in 300 μL of DMEM medium (containing 10% heat-inactivated FBS without bispecific antibody), the 48-well plate was labeled with information such as “number, cell type, number of generations, medium type, date and name”, and then the cells were cultured in a cell culture incubator at 37° C. with 5% CO2 for 18 hours. • 9.3.2 Before the pseudovirus transfection operation, prepare an ice box, re-dissolve the serum to be used on ice, thaw on ice the virus from the −25° C. refrigerator. After thawing, the serum and pseudovirus were flicked homogenously and centrifuged with a palm centrifuge. • 9.3.3 Examine the neutralization antibody with serum diluted in different ratios: use complete culture medium to dilute the pseudovirus (Fubio (Suzhou) Biomedical Technology Co., Ltd.) and mouse serum respectively, mix them well, and then dilute them 40-fold, 100-fold, 250-fold and 625-fold according to the final concentration of the cells of incubation. […]

[4] = Table 2, LNP formulation with mRNA
[5] = Table 2, IV, whole body scan, molar ratio DMG-PEG2000:DSPC:Chol:Lipid and N/P
[6] = Table 4, molar ratio 1.40:11.15:38.95:48.50, N/P 40, IM formulation
[7] = Table 4, molar ratio 1.50:16.00:34.00:48.50, N/P 55, IV formulation

Compound | Particle size (nm) [1, 4] [nm] | PDI ([1]; Table 2, polydispersity value) | In vivo IVIS ([2]; Table 2, IM, whole body scan) | In vivo IVIS [2, 5] | in vivo delivery efficiency as compared to the benchmark compound SM102 ([2]; Table 2) | OD 450 nm-630 nm ([3]; IM) | In vivo IVIS ([2]; Table 4, IM) | In vivo IVIS ([2]; Table 4, IV) | also measured
CCCCCCC(CCCCCC)C(=O)OCCCCOC(=O)C(O)CN1CCN(CCN(CC(O)C(=O)OCCCCOC(=O)C(CCCCCC)CCCCCC)CC(O)C(=O)OCCCCOC(=O)C(CCCCCC)CCCCCC)CC1 (centres unmarked) [Compound L0186] | 89.99 ± 0.58 | 0.12 ± 0.00 | 1.58 × 10^8 | 2.77 × 10^8 | superior in vivo delivery efficiency | 1.70 | – | – | In vivo IVIS (liver) ([2]; Table 2, IV): 5.61 × 10^7; In vivo IVIS (spleen) ([2]; Table 2, IV): 2.65 × 10^7
CCCCCCC(CCCCCC)C(=O)OCCCCCCOC(=O)C(O)CN(CCN1CCN(CCN(CC(O)C(=O)OCCCCCCOC(=O)C(CCCCCC)CCCCCC)CC(O)C(=O)OCCCCCCOC(=O)C(CCCCCC)CCCCCC)CC1)CCN(CC(O)C(=O)OCCCCCCOC(=O)C(CCCCCC)CCCCCC)CC(O)C(=O)OCCCCCCOC(=O)C(CCCCCC)CCCCCC (centres unmarked) [Compound L0203] | 126.73 ± 1.50 | 0.06 ± 0.01 | 8.01 × 10^7 | 3.89 × 10^8 | superior in vivo delivery efficiency | 1.72 | – | – | –
CCCCCCCCCCCCOC(=O)C(O)CN(CCN1CCN(CCN(CC(O)C(=O)OCCCCCCCCCCCC)CC(O)C(=O)OCCCCCCCCCCCC)CC1)CCN(CC(O)C(=O)OCCCCCCCCCCCC)CC(O)C(=O)OCCCCCCCCCCCC (centres unmarked) [Compound L0199] | – | – | 2.19 × 10^7 | 1.07 × 10^9 | superior in vivo delivery efficiency | – | 5.93 × 10^6 | 9.35 × 10^8 | Particle size (nm) ([1]; Table 2, LNP formulation with mRNA, molar ratio 1.40:11.15:38.95:48.50, N/P 40): 97.65 ± 0.59 nm; Particle size (nm) ([1]; Table 2, LNP formulation with mRNA, molar ratio 2.50:7.00:42.00:48.50, N/P 55): 130.00 ± 1.47 nm; PDI ([1]; Table 2, polydispersity value, molar ratio 1.40:11.15:38.95:48.50, N/P 40): 0.11 ± 0.01; PDI ([1]; Table 2, polydispersity value, molar ratio 2.50:7.00:42.00:48.50, N/P 55): 0.12 ± 0.01; PDI [1, 6]: 0.09 ± 0.02; Particle size (nm) [1, 6]: 123.50 ± 0.36 nm; PDI [1, 7]: 0.10 ± 0.02; Particle size (nm) [1, 7]: 147.57 ± 1.17 nm; OD 450 nm-630 nm ([3]; IV): 1.52
CCCCCCC(CCCCCC)C(=O)OCCCCCCOC(=O)C(O)CN1CCN(CCN(CC(O)C(=O)OCCCCCCOC(=O)C(CCCCCC)CCCCCC)CC(O)C(=O)OCCCCCCOC(=O)C(CCCCCC)CCCCCC)CC1 (centres unmarked) [Compound L0187] | 80.11 ± 0.17 | 0.12 ± 0.01 | 9.72 × 10^7 | 1.11 × 10^8 | superior in vivo delivery efficiency | 1.70 | – | – | In vivo IVIS (liver) ([2]; Table 2, IV): 2.46 × 10^7; In vivo IVIS (spleen) ([2]; Table 2, IV): 2.00 × 10^7
CCCCCCOCOCCCCCCOC(=O)C(O)CN(CCN1CCN(CCN(CC(O)C(=O)OCCCCCCOCOCCCCCC)CC(O)C(=O)OCCCCCCOCOCCCCCC)CC1)CCN(CC(O)C(=O)OCCCCCCOCOCCCCCC)CC(O)C(=O)OCCCCCCOCOCCCCCC (centres unmarked) [Compound L0200] | – | – | 3.08 × 10^5 | – | superior in vivo delivery efficiency | – | – | – | Particle size (nm) ([1]; Table 2, LNP formulation with mRNA, molar ratio 1.00:7.00:57.00:35.00, N/P 35): 106.93 ± 0.71 nm; Particle size (nm) ([1]; Table 2, LNP formulation with mRNA, molar ratio 1.40:11.15:38.95:48.50, N/P 65): 117.90 ± 0.36 nm; Particle size (nm) ([1]; Table 2, LNP formulation with mRNA, molar ratio 2.00:16.00:22.00:60.00, N/P 35): 104.50 ± 0.26 nm; PDI ([1]; Table 2, polydispersity value, molar ratio 1.00:7.00:57.00:35.00, N/P 35): 0.06 ± 0.01; PDI ([1]; Table 2, polydispersity value, molar ratio 1.40:11.15:38.95:48.50, N/P 65): 0.08 ± 0.02; PDI ([1]; Table 2, polydispersity value, molar ratio 2.00:16.00:22.00:60.00, N/P 35): 0.12 ± 0.01; OD 450 nm-630 nm ([3]; IV): 1.61
CCCCCCCCCCCOC(=O)CCCCCN(CCO)CCCCCCCC(=O)OC(CCCCCCCC)CCCCCCCC [SM-102, reference compound] | 81.71 ± 0.49 | 0.11 ± 0.01 | – | 1.40 × 10^9 | – | 1.64 | – | – | –
CCCCCCCCCCNC(=O)C(O)CN(CC(O)C(=O)NCCCCCCCCCC)[C@H]1CC[C@@H](N(CC(O)C(=O)NCCCCCCCCCC)CC(O)C(=O)NCCCCCCCCCC)CC1 (some centres unmarked) [Compound L0216] | – | – | – | – | – | – | 3.58 × 10^5 | 2.18 × 10^5 | PDI ([1]; Table 4): 0.08 ± 0.02; Particle size (nm) ([1]; Table 4): 117.97 ± 1.91 nm
CCCCCCCCCCNC(=O)C(O)CN(CCN1CCN(CCN(CC(O)C(=O)NCCCCCCCCCC)CC(O)C(=O)NCCCCCCCCCC)CC1)CCN(CC(O)C(=O)NCCCCCCCCCC)CC(O)C(=O)NCCCCCCCCCC (centres unmarked) [Compound L0198] | 90.47 ± 0.74 | 0.17 ± 0.01 | 9.58 × 10^6 | 4.61 × 10^7 | – | – | – | – | –
CCCCCCCCCCCCOC(=O)CCN(CCC(=O)OCCCCCCCCCCCC)CCN(CCC(=O)OCCCCCCCCCCCC)CCN1CCN(CCN(CCC(=O)OCCCCCCCCCCCC)CCC(=O)OCCCCCCCCCCCC)CC1 [L0199-Control, reference compound] | – | – | – | – | – | – | 5.84 × 10^6 | 2.12 × 10^7 | PDI [1, 6]: 0.17 ± 0.02; Particle size (nm) [1, 6]: 133.43 ± 1.86 nm; PDI [1, 7]: 0.16 ± 0.03; Particle size (nm) [1, 7]: 144.33 ± 0.31 nm; delivery efficiency, times lower than the hydroxy compound (L0191 or L0199) ([2]; IM administration): slightly lower; delivery efficiency, times lower than the hydroxy compound (L0191 or L0199) ([2]; IV administration): about 44 times
